Measured values reported in ChEMBL document CHEMBL4725255, “Broad assessment of bioactivity of a collection of spiroindane pyrrolidines through "cell painting"” (Bioorg Med Chem, 2020).
Calls of active or inactive are those of the source. The calls are words filed in the database; no cut-off is given here.

The compounds below were run on U2OS (assay: Cytotoxicity against human U-2 OS cells assessed as change in cell morphology incubated for 24 hrs at […] measured after various levels of staining by micro XL microscopic-imaging analysis).
Type: functional, cell-based
For `N#C[C@@H]1C[C@H]2[C@H]3[C@@H]1C=C[C@]32C1=NCCC1`, the Activity was “Active”. `COc1ccc(-c2ccc3c(c2)C2(CCCN2)C(C#N)C3)cc1` (stereo not given) was tested, and the Activity was “inactive”. For `N#CC1Cc2ccccc2C12CCCN2` (stereo in doubt; 1), the Activity was “Active”. `COCCOC(=O)N1CCCC12CCc1ccc(C#CCO)cc12` (stereo not given) was tested, and the Activity was “Active”. With `N#CC1Cc2ccccc2C12CCCN2` (stereo in doubt; 14) the Activity was “inactive”.
